Data taken from article PMC10178127, “Immunomodulatory Effects of the Pea Defensin Psd1 in the Caco-2/Immune Cells Co-Culture upon Candida albicans Infection” (International Journal of Molecular Sciences, 2023).

System: Caco-2/monocytes co-culture
Assay: Multiplex xMAP cytokine production, Caco-2/monocytes co-culture
Assay type: cell-based, human
Conditions: 24 h; for EGF level / Eotaxin level / FGF-2 level / FLT-3L level / Fractalkine level / G-CSF level / GM-CSF level / GROa level / IFNa2 level / IFNg level / IL-1RA level / IL-1a level / IL-1b level / IL-2 level / IL-3 level / IL-4 level / IL-5 level / IL-6 level / IL-7 level / IL-8 level / IL-9 level / IL-10 level / IL-12 (p40) level / IL-12 (p70) level / IL-13 level / IL-15 level / IL-17A level / IL-17E/IL-25 level / IL-17F level / IL-18 level / IL-22 level / IL-27 level / IP-10 level / M-GSF level / MCP-1 level / MCP-3 level / MDC level / MIG level / MIP-1a level / MIP-1b level / PDGF-AA level / PDGF-AB/BB level / RANTES level / TGF-a level / TNFa level / TNFb level / VEGFa level / sCD40L level: 2 µM apical, basolateral medium
Description: The co-culture model consisted of immune cells (moDCs or monocytes) lying on the bottom of the culture well, and a Caco-2 polarized monolayer, mimicking intestinal epithelium, on a permeable insert. Immune cells were located on the serosal side of the epithelial barrier. In some inserts Candida albicans was loaded to the apical side of the epithelium, mimicking intestinal lumen colonization with this pathogenic fungus. This co-culture model allows yeast cells to contact only with the apical side of epithelial cells, but not with immune cells. Culture medium, containing cytokines, chemokines, and growth factors, produced by both epithelial and immune cells, was taken from basolateral chambers and analyzed by multiplex xMAP technology after incubation during 24 h when C. albicans cells switched to hyphal form.
For growing cells, mimicking epithelial barriers in vitro, Caco-2 cells were seeded onto 24-well polycarbonate Millicell cell culture inserts (0.4 μm, 0.6 cm^2 surface area) (Millipore, Burlington, MA, USA), precoated with 0.2% bovine gelatin (Sigma-Aldrich), at a density of 2.5 × 10^5 cells/cm^2. The cells were grown for 21 days in a complete DMEM/F12 (1:1) medium with re-feeding every 2–3 days with a fresh complete medium. The integrity of the Caco-2 cell monolayer was checked by measuring the transepithelial electrical resistance (TEER) using a Millicell-ERS Voltohmmeter (Millipore). Only cell monolayers with TEER > 400 Ωcm^2 (after subtracting TEER in blank inserts without Caco-2 cells) were used in transport across epithelial monolayer and cytokine production experiments.
Monocytes and moDCs were seeded into the wells of 48- and 24-well plates in the complete RPMI-1640 medium supplemented with 10% human AB serum (HABS, Capricorn Scientific) without antibiotics 24 h prior to the experiment, and kept in a humidified CO2-incubator (5% CO2, 37 °C). After 24 h, the medium in the wells of the 48-well plate was replaced by fresh complete RPMI-1640 medium with 10% HABS, supplemented with 2 µM of Psd1 for the sample wells or fresh medium alone for the control wells. Medium in the wells of the 24-well plate was replaced by fresh complete RPMI-1640 medium with 10% human serum without antibiotics. Then, Millicell inserts with Caco-2 monolayers with TEER > 400 Ωcm^2 were placed into the wells of the 24-well plate, containing monocytes or moDCs. Wells with Millicell inserts with Caco-2 monolayers without immune cells were used as control wells. Medium in apical chambers of Millicell inserts was replaced by fresh complete RPMI-1640 with 10% human serum medium containing Psd1 at the final concentration of 2 µM or Candida albicans at the concentration of 5 × 10^4 cells/mL or yeast cells together with the pea defensin at the same concentration. Fresh complete RPMI-1640 medium only with 10% human serum and without antibiotics was used in control wells. Plates were kept in CO2-incubator (5% CO2, 37 °C) for another 24 h. Culture supernatants from the wells of the 48-well plate and basolateral chambers of the 24-well plate were collected and stored at −70 °C degrees less than one month prior to the analytes assessment. […]

[1] = Caco-2/monocytes co-culture with C. albicans, 2 μM

“Psd1: pea defensin from Pisum sativum (UNIPROT P81929), recombinant peptide overexpressed in Escherichia coli (KTCEHLADTYRGVCFTNASCDDHCKNKAHLISGTCHNWKCFCTQNC; UniProt P81929 1-46, looked up)” gave an EGF level (Caco-2/Mono+Candida+Psd1) of 7 pg/mL, an Eotaxin level (Caco-2/Mono+Candida+Psd1) of 4.44 pg/mL and an FGF-2 level (Caco-2/Mono+Candida+Psd1) of 47.02 pg/mL. The FLT-3L level (Caco-2/Mono+Candida+Psd1) was 0.83 pg/mL, the Fractalkine level (Caco-2/Mono+Candida+Psd1) was 27.26 pg/mL and the G-CSF level (Caco-2/Mono+Candida+Psd1) was 63.23 pg/mL. The GM-CSF level (Caco-2/Mono+Candida+Psd1) was 2.65 pg/mL, the GROa level (Caco-2/Mono+Candida+Psd1) was 1596 pg/mL and the IFNa2 level (Caco-2/Mono+Candida+Psd1) was 15.36 pg/mL. For the same substance, the IFNg level (Caco-2/Mono+Candida+Psd1) was <2.23↓ pg/ml, the IL-1RA level (Caco-2/Mono+Candida+Psd1) was 7.97 pg/mL and the IL-1a level (Caco-2/Mono+Candida+Psd1) was 29.04 pg/mL. For the same substance, the IL-1b level (Caco-2/Mono+Candida+Psd1) was 26.83 pg/mL, the IL-2 level (Caco-2/Mono+Candida+Psd1) was <0.95↓ pg/ml and the IL-3 level (Caco-2/Mono+Candida+Psd1) was <0.60↓ pg/ml. The IL-4 level (Caco-2/Mono+Candida+Psd1) was 3.07 pg/mL, the IL-5 level (Caco-2/Mono+Candida+Psd1) was <0.30↓ pg/ml and the IL-6 level (Caco-2/Mono+Candida+Psd1) was 631.32 pg/mL. For the same substance, the IL-7 level (Caco-2/Mono+Candida+Psd1) was <0.38↓ pg/ml, the IL-8 level (Caco-2/Mono+Candida+Psd1) was 8138 pg/mL and the IL-9 level (Caco-2/Mono+Candida+Psd1) was 6.07 pg/mL. For the same substance, the IL-10 level (Caco-2/Mono+Candida+Psd1) was 4.47 pg/mL, the “IL-12 (p40) level” value (Caco-2/Mono+Candida+Psd1) was 25.99 pg/mL and the “IL-12 (p70) level” value (Caco-2/Mono+Candida+Psd1) was <1.68↓ pg/ml. For the same substance, the IL-13 level (Caco-2/Mono+Candida+Psd1) was 25.38 pg/mL, the IL-15 level (Caco-2/Mono+Candida+Psd1) was 1.44 pg/mL and the IL-17A level (Caco-2/Mono+Candida+Psd1) was 2.9 pg/mL. The IL-17E/IL-25 level (Caco-2/Mono+Candida+Psd1) was <18.85↓ pg/ml, the IL-17F level (Caco-2/Mono+Candida+Psd1) was <19.03↓ pg/ml and the IL-18 level (Caco-2/Mono+Candida+Psd1) was 3.62 pg/mL. It also gave an IL-22 level (Caco-2/Mono+Candida+Psd1) of 24.13 pg/mL, an IL-27 level (Caco-2/Mono+Candida+Psd1) of 63.98 pg/mL and an IP-10 level (Caco-2/Mono+Candida+Psd1) of 35.99 pg/mL. The M-GSF level (Caco-2/Mono+Candida+Psd1) was 34.31 pg/mL, the MCP-1 level (Caco-2/Mono+Candida+Psd1) was 9510 pg/mL and the MCP-3 level (Caco-2/Mono+Candida+Psd1) was 273.49 pg/mL. The MDC level (Caco-2/Mono+Candida+Psd1) was 1060 pg/mL, the MIG level (Caco-2/Mono+Candida+Psd1) was 50.41 pg/mL and the MIP-1a level (Caco-2/Mono+Candida+Psd1) was 22.02 pg/mL. It also gave an MIP-1b level (Caco-2/Mono+Candida+Psd1) of 53.4 pg/mL, a PDGF-AA level (Caco-2/Mono+Candida+Psd1) of 341.69 pg/mL and a PDGF-AB/BB level (Caco-2/Mono+Candida+Psd1) of 805.91 pg/mL. The RANTES level (Caco-2/Mono+Candida+Psd1) was 78.92 pg/mL, the TGF-a level (Caco-2/Mono+Candida+Psd1) was 2.79 pg/mL and the TNFa level (Caco-2/Mono+Candida+Psd1) was 33.8 pg/mL. For the same substance, the TNFb level (Caco-2/Mono+Candida+Psd1) was 11.12 pg/mL, the VEGFa level (Caco-2/Mono+Candida+Psd1) was 523.74 pg/mL and the sCD40L level (Caco-2/Mono+Candida+Psd1) was 89.41 pg/mL. The EGF level (Caco-2/Mono+Psd1) was 9.18 pg/mL, the Eotaxin level (Caco-2/Mono+Psd1) was 4.17 pg/mL and the FGF-2 level (Caco-2/Mono+Psd1) was 43.83 pg/mL. For the same substance, the FLT-3L level (Caco-2/Mono+Psd1) was 1.29 pg/mL, the Fractalkine level (Caco-2/Mono+Psd1) was 29.68 pg/mL and the G-CSF level (Caco-2/Mono+Psd1) was 80.21 pg/mL. For the same substance, the GM-CSF level (Caco-2/Mono+Psd1) was 4.74 pg/mL, the GROa level (Caco-2/Mono+Psd1) was 1849 pg/mL and the IFNa2 level (Caco-2/Mono+Psd1) was 18.56 pg/mL. The IFNg level (Caco-2/Mono+Psd1) was <2.23↓ pg/ml, the IL-1RA level (Caco-2/Mono+Psd1) was 10.99 pg/mL and the IL-1a level (Caco-2/Mono+Psd1) was 137.08 pg/mL. For the same substance, the IL-1b level (Caco-2/Mono+Psd1) was 62.38 pg/mL, the IL-2 level (Caco-2/Mono+Psd1) was 3.01 pg/mL and the IL-3 level (Caco-2/Mono+Psd1) was <0.60↓ pg/ml. For the same substance, the IL-4 level (Caco-2/Mono+Psd1) was 2.67 pg/mL, the IL-5 level (Caco-2/Mono+Psd1) was <0.30↓ pg/ml and the IL-6 level (Caco-2/Mono+Psd1) was 830.31 pg/mL. The IL-7 level (Caco-2/Mono+Psd1) was <0.38↓ pg/ml, the IL-8 level (Caco-2/Mono+Psd1) was 7130 pg/mL and the IL-9 level (Caco-2/Mono+Psd1) was 6.07 pg/mL. For the same substance, the IL-10 level (Caco-2/Mono+Psd1) was 8.82 pg/mL, the “IL-12 (p40) level” value (Caco-2/Mono+Psd1) was 40.75 pg/mL and the “IL-12 (p70) level” value (Caco-2/Mono+Psd1) was 2.06 pg/mL. It also gave an IL-13 level (Caco-2/Mono+Psd1) of 23.46 pg/mL, an IL-15 level (Caco-2/Mono+Psd1) of 2.33 pg/mL and an IL-17A level (Caco-2/Mono+Psd1) of 3.99 pg/mL. The IL-17E/IL-25 level (Caco-2/Mono+Psd1) was <18.85↓ pg/ml, the IL-17F level (Caco-2/Mono+Psd1) was <19.03↓ pg/ml and the IL-18 level (Caco-2/Mono+Psd1) was 5.64 pg/mL. The IL-22 level (Caco-2/Mono+Psd1) was 18.63 pg/mL, the IL-27 level (Caco-2/Mono+Psd1) was 76.02 pg/mL and the IP-10 level (Caco-2/Mono+Psd1) was 70.11 pg/mL. It also gave a M-GSF level (Caco-2/Mono+Psd1) of 34.31 pg/mL, an MCP-1 level (Caco-2/Mono+Psd1) of 9656 pg/mL and an MCP-3 level (Caco-2/Mono+Psd1) of 354.38 pg/mL. It also gave an MDC level (Caco-2/Mono+Psd1) of 1230 pg/mL, an MIG level (Caco-2/Mono+Psd1) of 129.1 pg/mL and an MIP-1a level (Caco-2/Mono+Psd1) of 26.21 pg/mL. It also gave an MIP-1b level (Caco-2/Mono+Psd1) of 45.94 pg/mL, a PDGF-AA level (Caco-2/Mono+Psd1) of 357.15 pg/mL and a PDGF-AB/BB level (Caco-2/Mono+Psd1) of 985.45 pg/mL. For the same substance, the RANTES level (Caco-2/Mono+Psd1) was 123.08 pg/mL, the TGF-a level (Caco-2/Mono+Psd1) was 4.39 pg/mL and the TNFa level (Caco-2/Mono+Psd1) was 44.58 pg/mL. It also gave a TNFb level (Caco-2/Mono+Psd1) of 10.19 pg/mL, a VEGFa level (Caco-2/Mono+Psd1) of 384.49 pg/mL and a sCD40L level (Caco-2/Mono+Psd1) of 94.06 pg/mL. The “production of IL-4” value [1] was “increased the production”, the “production of IL-8/CXCL8, IL-12, TNFα, G-CSF, and GM-CSF” value [1] was “decreased inhibiting action of pathogenic fungus” and the “production of IL-22” value [1] was “statistically significantly (p < 0.05) increased”. The “production of MIG/CXCL9” value [1] was “decreased the production” and the “production of IL-2, IL-10, MDC and IL-17” value (Caco-2/monocytes co-culture, 2 μM apical, no Candida) was “statistically significant increase”.
